For ten compounds, IC50 results are on record in patent US12577257B2, “Heterocyclic compounds” (Hoffmann-La Roche Inc., priority 2018, dated 2026).

SMILES strings stand for the structures.

The IC50 is the midpoint of a concentration-inhibition curve.

One assay concerns the target T1, MAGL (Homo sapiens, UniProt Q99685).
T1 sequence (Q99685 1-303): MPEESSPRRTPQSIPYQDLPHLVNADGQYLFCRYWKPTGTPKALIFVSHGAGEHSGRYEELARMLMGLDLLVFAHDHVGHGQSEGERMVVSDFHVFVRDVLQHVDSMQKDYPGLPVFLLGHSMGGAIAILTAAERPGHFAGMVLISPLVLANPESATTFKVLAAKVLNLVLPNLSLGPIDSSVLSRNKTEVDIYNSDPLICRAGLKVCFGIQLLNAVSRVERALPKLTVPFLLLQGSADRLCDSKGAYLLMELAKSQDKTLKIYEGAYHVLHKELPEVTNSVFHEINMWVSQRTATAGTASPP
Put plainly: MAGL inhibition, Table 1 values with no assay marker (2-AG or 4-NPA assay not stated). The class given is biochemical.
Settings: not given
As for the experimental part: (§1) Compounds were profiled for MAGL inhibitory activity by measuring the enzymatic activity of MAGL by following the hydrolysis of 4-nitrophenylacetate resulting in 4-nitrophenol, which absorbs at 405-412 nm (G. G. Muccioli, G. Labar, D. M. Lambert, Chem. Bio. Chem. 2008, 9, 2704-2710). This assay is hereinafter abbreviated “4-NPA assay”.
(§2) The 4-NPA assay was carried out in 384 well assay plates (black with clear bottom, non-binding surface treated, Corning Ref. 3655) in a total volume of 40 μL. Compound dilutions were made in 100% DMSO (VWR Chemicals 23500.297) in a polypropylene plate in 3-fold dilution steps to give a final concentration range in the assay from 25 μM to 1.7 nM. 1 μL compound dilutions (100% DMSO) were added to 19 μL MAGL (recombinant wild-type) in assay buffer (50 mM TRIS (GIBCO, 15567-027), 1 mM EDTA (Fluka, 03690-100 ml)). The plate was shaked for 1 min at 2000 rpm (Variomag Teleshake) and then incubated for 15 min at RT. To start the reaction, 20 μL 4-Nitrophenylacetate (Sigma N-8130) in assay buffer with 6% EtOH was added. The final concentrations in the assay were 1 nM MAGL and 300 μM 4-Nitrophenylacetate. After shaking (1 min, 2000 rpm) and 5 min incubation at RT, the absorbance at 405 nm was measured for a first time (Molecular Devices, SpectraMax Paradigm). A second measurement was then done after incubation for 80 min at RT. From the two measurements, the slope was calculated by subtracting the first from the second measurement.
Alternatively, compounds were profiled for MAGL inhibitory activity by determining the enzymatic activity by following the hydrolysis of the natural substrate 2-arachidonoylglycerol resulting in arachidonic acid, which can be followed by mass spectrometry. This assay is hereinafter abbreviated “2-AG assay”.
The 2-AG assay was carried out in 384 well assay plates (PP, Greiner Cat #784201) in a total volume of 20 μL. Compound dilutions were made in 100% DMSO (VWR Chemicals 23500.297) in a polypropylene plate in 3-fold dilution steps to give a final concentration range in the assay from 12.5 μM to […]. 0.25 μL compound dilutions (100% DMSO) were added to 9 μL MAGL in assay buffer (50 mM TRIS (GIBCO, 15567-027), 1 mM EDTA (Fluka, 03690-100 ml), 0.01% (v/v) Tween. After shaking, the plate was incubated for 15 min at RT. To start the reaction, 10 μL 2-arachidonoylglycerol in assay buffer was added. The final concentrations in the assay was […] and 8 μM 2-arachidonoylglycerol. After shaking and 30 min incubation at RT, the reaction was quenched by the addition of 40 μL of acetonitrile containing 4 μM of d8-arachidonic acid. The amount of arachidonic acid was traced by an online SPE system (Agilent Rapidfire) coupled to a triple quadrupole mass spectrometer (Agilent 6460). A C18 SPE cartridge (G9205A) was used in an acetonitrile/water liquid setup. The mass spectrometer was operated in negative electrospray mode following the mass transitions 303.1→259.1 for arachidonic acid and 311.1→267.0 for d8-arachidonic acid. The activity of the compounds was calculated based on the ratio of intensities [arachidonic acid/d8-arachidonic acid].
Regarding `O=C1CO[C@H]2CCN(C(=O)N3CC4(CC(S(=O)(=O)c5ccc(F)cc5Cl)C4)C3)C[C@H]2N1` [Example 67, (4aR,8aS)-6-(6-((2-chloro-4-fluorophenyl)sulfonyl)-2-azaspiro[3.3]heptane-2-carbonyl)hexahydro-2H-pyrido[4,3-b][1,4]oxazin-3(4H)-one], the half-maximal inhibitory concentration (IC50) is 67.1 nM. Same read-out and setting: then `O=C1CO[C@H]2CCN(C(=O)N3CC4(C3)CN(S(=O)(=O)c3ccc(C(F)(F)F)c(Cl)c3)C4)C[C@H]2N1` [Example 68, (4aR,8aS)-6-(6-((3-chloro-4-(trifluoromethyl)phenyl)sulfonyl)-2,6-diazaspiro[3.3]heptane-2-carbonyl)hexahydro-2H-pyrido[4,3-b][1,4]oxazin-3(4H)-one], with 357 nM.

Consider `O=C1CO[C@H]2CCN(C(=O)N3CC4(C3)CN(S(=O)(=O)c3ccc(C(F)(F)F)cc3C(F)(F)F)C4)C[C@H]2N1` [Example 69, (4aR,8aS)-6-(6-((2,4-bis(trifluoromethyl)phenyl)sulfonyl)-2,6-diazaspiro[3.3]heptane-2-carbonyl)hexahydro-2H-pyrido[4,3-b][1,4]oxazin-3(4H)-one], for which the IC50 was determined as 214 nM. Still for that read-out and setting: for `COc1cccc(F)c1CC1CC2(C1)CN(C(=O)N1CC[C@@H]3OCC(=O)N[C@@H]3C1)C2` [Example 71, (4aR,8aS)-6-(6-(2-fluoro-6-methoxybenzyl)-2-azaspiro[3.3]heptane-2-carbonyl)hexahydro-2H-pyrido[4,3-b][1,4]oxazin-3(4H)-one] the value was 0.1 nM; for `O=C1CO[C@H]2CCN(C(=O)N3CC4(CC(Cc5c(O)cccc5F)C4)C3)C[C@H]2N1` [Example 73, (4aR,8aS)-6-(6-(2-fluoro-6-hydroxybenzyl)-2-azaspiro[3.3]heptane-2-carbonyl)hexahydro-2H-pyrido[4,3-b][1,4]oxazin-3(4H)-one], 0.1 nM; for `O=C1CO[C@H]2CCN(C(=O)N3CC4(CC(Cc5ccccc5O)C4)C3)C[C@H]2N1` [Example 74, (4aR,8aS)-6-(6-(2-hydroxybenzyl)-2-azaspiro[3.3]heptane-2-carbonyl)hexahydro-2H-pyrido[4,3-b][1,4]oxazin-3(4H)-one], 0.5 nM.

The next assay concerns the target T2, MAGL (recombinant wild-type) (Homo sapiens, UniProt Q99685).
T2 sequence (Q99685 1-303): T1 sequence (Q99685 1-303)
Put plainly: 4-NPA assay: MAGL hydrolysis of 4-nitrophenylacetate, absorbance at 405 nm. Format: biochemical. The following applies: footnote [b]: measured in 4-NPA assay. As for the experimental part: as §1, §2
In the case of `O=C1CO[C@H]2CCN(C(=O)N3CCC4(C3)CN(C(c3ccccc3)c3ccccc3)C4)C[C@H]2N1` (racemic) [Example 20, rac-(4aR,8aS)-6-(2-Benzhydryl-2,6-diazaspiro[3.4]octane-6-carbonyl)hexahydro-2H-pyrido[4,3-b][1,4]oxazin-3(4H)-one], the half-inhibitory concentration (IC50) was 2690 nM. The same measure, in the same setting: for `O=C1CO[C@H]2CCN(C(=O)N3CCC4(CC3)CN(S(=O)(=O)c3ccc(F)cc3)CCO4)C[C@H]2N1` (racemic) [Example 21, rac-(4aR,8aS)-6-(4-((4-Fluorophenyl)sulfonyl)-1-oxa-4,9-diazaspiro[5.5]undecane-9-carbonyl)hexahydro-2H-pyrido[4,3-b][1,4]oxazin-3(4H)-one] the value was 836 nM. On to `CC(C)(C)OC(=O)N1CC2(CCN(C(=O)N3CC[C@@H]4OCC(=O)N[C@@H]4C3)C2)C1` (racemic) [Int-1, rac-tert-Butyl 6-((4aR,8aS)-3-oxooctahydro-2H-pyrido[4,3-b][1,4]oxazine-6-carbonyl)-2,6-diazaspiro[3.4]octane-2-carboxylate], for which the IC50 was 539 nM. Same read-out and setting: then `O=C1CO[C@H]2CCN(C(=O)N3CCC4(CC3)CN(S(=O)(=O)c3ccccc3)C4)C[C@H]2N1` [Example 39, (4aR,8aS)-6-(2-(Phenylsulfonyl)-2,7-diazaspiro[3.5]nonane-7-carbonyl)hexahydro-2H-pyrido[4,3-b][1,4]oxazin-3(4H)-one], with 599 nM.
